Measured values reported in US7807882B2, “Herbicide-resistant sunflower plants, polynucleotides encoding herbicide-resistant acetohydroxyacid synthase large subunit proteins, and methods of use” (priority 2004, dated 2010).

Assays:
Experiment in all cases: Field trial, sulfonylurea tolerance (herbicide injury ratings), Balcarce
Assay type in all cases: in vivo, Helianthus annuus
[1] = test system: MUT28 sunflower line; settings: No injury = 0
Text: (§1) To evaluate the tolerance of MUT28 sunflower plants to sulfonylurea herbicides, HA89 (wild-type), MUT28, IMISUN-1, and SURES-1 sunflower lines were planted outdoors in Balcarce, Argentina during the growing season in an RCBD field trial with two replications to evaluate the tolerance of MUT28 plants to the sulfonylurea herbicide thifensulfuron (TFS) at 1× and 2× rates. The 1× rates for TFS is 4.4 g a.i./ha.

[2] = test system: IMISUN-1 sunflower line; settings: line IMISUN-1, No injury = 0
Text: as §1

[3] = test system: HA89 (wild-type) sunflower line; settings: No injury = 0
Text: as §1

[4] = test system: SURES-1 sunflower line; settings: line SURES-1, No injury = 0
Text: as §1

Structure (SMILES): COc1nc(C)nc(NC(=O)NS(=O)(=O)c2ccsc2C(=O)O)n1 [thifensulfuron]
- Herbicide Injury Ratings ([1]; rate 1× (4.4 g a.i./ha)): 30
- Herbicide Injury Ratings ([1]; rate 2× (1× is 4.4 g a.i./ha)): 42
- Herbicide Injury Ratings ([2]; rate 1× (4.4 g a.i./ha)): 20
- Herbicide Injury Ratings ([2]; rate 2× (1× is 4.4 g a.i./ha)): 75
- Herbicide Injury Ratings ([3]; rate 1× (4.4 g a.i./ha)): 75
- Herbicide Injury Ratings ([3]; rate 2× (1× is 4.4 g a.i./ha)): 75
- Herbicide Injury Ratings ([4]; rate 1× (4.4 g a.i./ha)): 5
- Herbicide Injury Ratings ([4]; rate 2× (1× is 4.4 g a.i./ha)): 3
